Data: US20220378816A1, “2-BENZYLIDENE HYDRAZINOADENOSINE COMPOUNDS HAVING A2A ADENOSINE RECEPTOR AGONISTIC ACTIVITY” (ACADEMY OF MILITARY MEDICAL SCIENCES, priority 2019, published 2022)
Read-outs that look alike come from different tables or passages of the source.

What was measured:
[1] = molecular target: human adenosine receptor A2A (Homo sapiens, UniProt P29274); experiment: Adenosine receptor A2A cAMP test (LANCE Ultra cAMP, hADORA2A-HEK293 cells); format: cell-based; details: for hA2AAR agonist function: cAMP test; for EC50: stimulating production of cyclic AMP, hADORA2A-HEK293 cells
Chain of human adenosine receptor A2A (P29274 whole entry): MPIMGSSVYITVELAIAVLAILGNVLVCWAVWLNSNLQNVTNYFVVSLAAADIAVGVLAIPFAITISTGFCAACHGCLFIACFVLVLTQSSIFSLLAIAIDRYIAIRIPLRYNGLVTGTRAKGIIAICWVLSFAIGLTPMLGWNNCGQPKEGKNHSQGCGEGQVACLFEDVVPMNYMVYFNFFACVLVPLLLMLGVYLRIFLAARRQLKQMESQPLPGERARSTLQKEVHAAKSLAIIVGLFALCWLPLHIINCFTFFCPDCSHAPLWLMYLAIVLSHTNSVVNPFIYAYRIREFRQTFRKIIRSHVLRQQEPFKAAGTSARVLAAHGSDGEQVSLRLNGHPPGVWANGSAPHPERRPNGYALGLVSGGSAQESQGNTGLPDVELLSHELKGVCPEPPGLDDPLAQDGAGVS
From the text: Experimental reagents and consumables: DMEM/F12, G418, Penicillin-Streptomycin, Versene Solution, HEPES, Hank's Buffered Saline Solution, PBS (pH 7.4, 1×, sterile), FBS, BSA Stabilizer 7.5%, Rolipram, NECA were separately purchased from Gibico, Hyclone and Sigma. LANCE® Ultra cAMP kit (Eu-cAMP tracer, Ulight-anti-cAMP reagent, cAMP detection buffer) and hADORA2A-HEK293 cells were purchased from PerkinElmer Research Products (Boston, Mass.). All other reagents were of analytical grade and obtained from commercial sources. 384-well polypropylene microplate and 384-well solid white plate were purchased from Labcyte and Corning, respectively.
The cells stably expressing human adenosine receptor A2A (hADORA2A-HEK293 cells) were cultured in DMEM/F12 medium containing 10% FBS, 1×Penicillin-Streptomycin and 400 μg/ml G418 in a 37° C. and 5% CO2 environment. Before the experiment, the cells were digested with Versene solution, and the cells were collected by centrifugation at 200 g and room temperature for 5 minutes, and finally resuspended with assay buffer (Hank's buffered saline solution, containing 5 mM HEPES, 0.1% BSA stabilizer and 10 μM Rolipram, pH 7.4). The TECAN automated liquid handling workstation was used to dilute the compound in a 384-well polypropylene microplate with DMSO to 11 concentration points in a 3-fold gradient to prepare the compound source plate, in which the 11 concentration points of the compound were 10 mM, 3.33 mM, 1.11 mM., 0.3 7mM, 0.1 2 mM, 0.041 mM, 0.013 mM, 4.57×10^−3 mM, 1.52×10^−3 mM, 5×10^−4 mM and 1.7×10^−4 mM. The Echo Acoustic Liquid Handler (Labcyte) was used to transfer the test compound from the compound source plate to an assay plate, in which the transfer volume of the compound was 10 nl/well. The hADORA2A-HEK293 cell suspension was diluted with assay buffer to 30,000 cells/ml, and the cell suspension was transferred to the assay plate at a volume of 10 μl/well (300 cells/well). The assay plate was centrifuged at 150 g for 1 minute and pre-incubated at room temperature for 30 minutes. The Eu-cAMP tracer working solution (Eu-cAMP tracer 40 μl, cAMP detection buffer 1.96 ml) (5 μl/well) was added to the assay plate, and then the Ulight-anti-cAMP working solution (13 μl of Ulight-anti-cAMP reagent and 1.95 ml of cAMP detection buffer) (5 µl/well) was added to the assay plate. The assay plate was rotated at 150 g for 30 seconds and incubated at room temperature for 30 minutes. The EnVision multimode plate reader (PerkinElmer) was used determine the level of cyclic adenosine monophosphate in the final solution (λex=320 nm, λem=665 nm & 615 nm). The EC50 (nM) value of the compound interacting with the A2A adenosine receptor to stimulate the production of cyclic adenosine monophosphate was calculated and the A2A receptor agonist titer of the compound was expressed as the EC50 (nM) value.

[2] = molecular target: T1, (human) A2A adenosine receptors (Homo sapiens, UniProt P29274); experiment: Radioligand binding test ([3H]CGS21680 displacement, hA2A HEK-293 cell membranes); details: for Ki: read-out: Ki (inhibition constant)
T1 construct: purchased PerkinElmer Research Products (Boston, Mass.); host or cells: HEK-293
T1 sequence (P29274 whole entry): as above
Description: Cell membranes stably transfected with (human) A2A adenosine receptors were prepared in HEK-293 cells. The cell membranes were obtained from PerkinElmer Research Products (Boston, Mass.).
The A2A adenosine receptors used were all expressed in the cell membranes. […] (final 25 nM) was added to the diluted cell membrane, and mixed well. 50 μL of the prepared dilution solution of cell membrane was transferred to the 384-well Opti-plate containing compound and incubated at 25° C. for 90 minutes. 100 μL of 0.5% Polyethyleneimine solution (PEI) was added to […]-96 GF/B filter plate, and soaked for 90 minutes at 4° C., then 500 μL of washing buffer/well (50 mM Tris-HCl pH 7.4, 154 mM NaCl) was transferred with Cell Harvester to wash the […]-96 GF/B filter plate twice. The mixed system in the Opti-plate was transferred to the washed […]-96 GF/B filter plate, 500 μL of washing buffer/well (50 mM Tris-HCl pH 7.4, 154 mM NaCl) was used to wash the […]-96 GF/B filter plate 9 times. Incubation was performed in 37° C. incubator for 3 minutes. 40 μL of ULTIMA GOLD scintillation solution (Perkin Elmer, Cat #77-16061) was added to each well, CPM (count per minute) value was read by a MicroBeta liquid scintillation counter (PerkinElmer).

[3] = tested on: blood-brain barrier; experiment: Animal experiment of blood-brain barrier disruption (FITC-Dextran in brain of SD rats); format: in vivo
Description: Fluorescein-labeled dextran FITC-Dextran (CAS: 60842-46-8) with molecular weight of 10,000 MW was purchased from TCI (Shanghai) Development Co., Ltd.; PBS solution and experimental animal SD rats were obtained from commercial sources.
FITC-Dextran solutions with six concentration gradients ([…], 10 μg/ml) were prepared with PBS, and standard curve of FITC-Dextran concentration was made by using microplate reader (λex=490 nm, λem=520 nm). Additionally, 10 mg/ml FITC-Dextran solution was prepared, Compound 5 was added to PBS solution to prepare 1 mg/ml solution. 1 ml of 10 mg/ml FITC-Dextran solution and 1 ml of 1 mg/ml Compound 5 in PBS solution were taken and mixed to prepare administration solvent. 1 ml of 10mg/ml FITC-Dextran solution and 1 ml of PBS solution were taken and mixed to prepare blank control solution. 6 SD rats were injected with 2 ml of the administration solvent via tail vein, respectively, while another 6 SD rats were injected with 2 ml of the blank control solution via tail vein. […] The solution to be tested was subjected to fluorescence detection by using the microplate reader (λex=490 nm, λem=520 nm).
The measured fluorescence value by the microplate reader was converted into the corresponding FITC-Dextran average concentration according to the obtained standard curve of FITC-Dextran concentration.

[4] = calculated from IC50 by Cheng and Prusoff equation, [S] 25 nM, Km […] nM

SMILES	hA2AAR agonist function [1]	melting point [°C]	IC50 [2] [nM]	Ki [2] [nM]	EC50 [1] [nM]	Ki [2, 4] [nM]	opening of the blood-brain barrier ([3]; FITC-Dextran co-injected)	FITC-Dextran concentration in brain ([3]; tail vein injection with FITC-Dextran (10,000 MW), brain taken after 30 minutes, average) [µg/mL]
Nc1nc(N/N=C/c2ccc(-c3ccccc3)cc2)nc2c1ncn2[C@@H]1O[C@H](CO)C(O)C1O (some centres unmarked) [Compound 9]	shown as hA2AAR agonists	234						
CCN(CC)c1ccc(/C=N/Nc2nc(N)c3ncn([C@@H]4O[C@H](CO)[C@@H](O)[C@H]4O)c3n2)cc1 [Compound 15, (2R,3R,4S,5R)-2-{6-amino-2-{2-[(E)-4-(diethylamino)benzylidene]hydrazino}-9H-purin-9-yl}-5-(hydroxymethyl)tetrahydrofuran-3,4-diol]	shown as hA2AAR agonists	164	13.7	6.4	17.9			
Nc1nc(N/N=C/c2ccc(OCc3ccccc3)c(OCc3ccccc3)c2)nc2c1ncn2[C@@H]1O[C@H](CO)[C@@H](O)[C@H]1O [Compound 2, (2R,3R,4S,5R)-2-{6-amino-2-{2-[(E)-3,4-bis(benzyloxy)benzylidene]hydrazino}-9H-purin-9-yl}-5-(hydroxymethyl)tetrahydrofuran-3,4-diol]	shown as hA2AAR agonists	220	3.9		0.64	1.8		
Nc1nc(N/N=C/c2ccc(OCc3ccc(F)cc3)cc2)nc2c1ncn2[C@@H]1O[C@H](CO)[C@@H](O)[C@H]1O [Compound 5, (2R,3R,4S,5R)-2-{6-amino-2-{2-{(E)-4-[(4-fluorobenzyl)oxy]benzylidene}hydrazino}-9H-purin-9-yl}-5-(hydroxymethyl)tetrahydrofuran-3,4-diol]	shown as hA2AAR agonists	144	11.7		4.1	5.5	could open the blood-brain barrier	0.11
N#Cc1ccc(/C=N/Nc2nc(N)c3ncn([C@@H]4O[C@H](CO)C(O)C4O)c3n2)cc1 (some centres unmarked) [Compound 20]		276	18.1	8.5	15.3			
